Measurements taken from US9382204B2, “Inhibitors targeting the DNA-binding domain of human STAT3 for treatment of metastatic cancers” (Indiana University Research and Technology Corporation, priority 2013, dated 2016).

Experiments:
[1] = Cytotoxicity sulphorhodamine (SRB) assay, non-cancerous cells; conditions: human, IMR90 lung fibroblast and MCF10A1 mammary epithelial cells
Experimental: FIG. 7. […] (A) Level of STAT3 expression and activation. […] Actin was used as a loading control. (B-C) Cytotoxicity assay. […] IC50 of inS3-54 for each cell line was derived using PrismPad program. (D) Apoptosis assay.
Cytotoxicity of inS3-54 was determined using sulphorhodamine colorimetric assay as described previously (41). Photometric enzyme immunoassay using Cell Death Detection ELISA Plus kit (Roche Diagnostics, Indianapolis, Ind.) was performed for quantitative in-vitro determination of cytoplasmic histone-associated DNA fragments and apoptosis as we previously described.
Survival, apoptosis, migration, and invasion assays were performed as previously described. Briefly, effect of STAT3 inhibitors on cell survival were analyzed using sulforhodamine B (SRB) assay. Apoptosis induced by STAT3 inhibitors cells were quantified using Cell Death Detection ELISA^PLUS Kit (Roche, Mannheim, Germany) by enzyme-linked immunosorbent assay (ELISA) according to manufacturer's instructions. Wound filling assay was performed by culturing 1×10^5 cells/well in 6-well plates, followed by generating a wound using a pipet tip and continuous culture with photographic recording at different times.

[2] = tested on: A549 and MDA-MB-231 cells; experiment: Luminescence-based glutathione alkylation assay (GSH-Glo); format: cell-based, human; conditions: 20 μM inS3-54 48 hours, 15 mM iodoacetamide 30 minutes
From the text: FIG. 5. Effect of inS3-54 glutathione level. […] (***p<0.001).
To further eliminate the possibility that inS3-54 has alkylating activity, we performed luminescence-based glutathione alkylation assay.

[3] = tested on: STAT3; experiment: ChIP assay of STAT3 bound to cyclin D1 promoter; format: cell-based, human
Experimental: ChIP was performed as previously described. Briefly, H1299 cells were treated with 1% formaldehyde for 10 min and lysates of the cells were sonicated to shear DNA to lengths between 200 and 1000 bases, which were then subjected to ChIP using Chromatin Immunoprecipitation Assay Kit (EMD Millipore, Billerica, Mass.) and normal IgG or STAT3 specific antibody (Santa Cruz) according to manufacturer's instructions. The primers for PCR of cyclin D1 promoter are 5′-[…]-3′ SEQ ID NO: 23 (forward) and 5′-[…]-3′ SED ID NO: 24 (reverse).

[4] = tested on: A549 cells; experiment: Mouse xenograft model of A549 cells; format: in vivo, NOD/SCID mice
Experimental: For efficacy study. 5×10^6 A549 cells were injected subcutaneously in the flanks of 12 NOD/SCID mice. When the tumor volume reached about 50.0 mm^3, the mice were randomized into two different groups (6/group) with one treated by formulation vehicle control (Pharmatek Laboratories, San Diego, Calif.) and the other by A18 at 200 mg/kg with oral dosing every two days for four weeks. One mouse in each group died during the study and was eliminated. Tumor volume and body weight were measured twice a week. On the 35th day after implant, mice were euthanized and the tumor tissues were harvested and weighed. Necropsy was also performed to determine the changes in heart, lungs, kidneys, liver and spleen. To evaluate the histological alternation, metastasis in the lung and the expression of STAT3 and its downstream proteins, paraffin-embedded tissue sections were stained with ematoxylin and eosin (H&E) and/or used for immunohistochemistry analysis.

[5] = 200 mg/kg oral, every two days for four weeks

Structure (SMILES) | IC50 at 72 h [1] | glutathione level [2] | STAT3 binding to the promoter of cyclin D1 gene (ChIP) [3] | final tumor weight compared to control-treated group [4, 5] | mouse body weight [4, 5] | weight of other organs [4, 5] | xenograft tumor growth compared to vehicle control [4, 5] | lung metastasis ([4]; H&E staining and histology) | expression of survivin and VEGF in xenograft tumors ([4]; immunohistochemistry)
O=C(O)c1ccc(N2C(=O)/C(=C/c3ccc([N+](=O)[O-])cc3)C=C2c2ccccc2)cc1 [inS3-54, 4-[(3E)-3-[(4-nitrophenyl)-methylidene]-2-oxo-5-phenylpyrrol-1-yl]benzoic acid] | 10 to 12 µM | did not significantly reduce | – | – | – | – | – | – | –
O=C1C(=Cc2ccc(Cl)cc2)C=C(c2ccccc2)N1c1ccc(O)cc1 [Compound A18] | – | – | eliminated | significantly less | no significant effect | no difference | significantly reduced | None of the A18-treated mice has any signs of lung metastasis | reduced
